From patent US10301305B2 (priority 2014, dated 2019)
Structures can show the parent of a compound that is named as a salt. Where two headings read alike, the source gives them in different places.

Assays:
Assay type in all cases: biochemical
[1] = biological target: E. feacium DltA (Enterococcus faecium, UniProt Q3XZT7); experiment: in vitro DltA activity assay (luminescence), E. faecium DltA
Description: (§1) The effect of the compounds of the invention on DltA enzymes has been based on the measure of their inhibition of DltA activity in vitro. To this end, recombinant proteins DltA were expressed and purified after cloning of the genes of S. aureus, E. faecalis, E. faecium and S. agalactiae as described thereafter. The capacity of the compounds of the invention to inhibit DltA enzymatic activity was assessed using the DltA assays as described below:
(§2) The dltA gene was amplified from chromosomal DNA of S. aureus, E. faecalis, E. faecium and S. agalactiae and introduced into E. coli BL21 (Invitrogen, Carlsbad, Calif.) following manufacturer's instruction. Bacteria were grown at 37° C. under aerobic conditions and isopropyl-beta-D-thiogalactopyranoside (IPTG) was added to 0.5-1 mM when OD600 of the bacterial culture had reached 0.5. After a further incubation for 3 hours, cells were harvested by centrifugation. Purification of the recombinant DltA protein was performed by affinity chromatography on nickel-nitrilotriacetic acid (Ni-NTA) column following manufacturer's instructions (Qiagen). Fractions containing recombinant DltA protein were adjusted to 50% glycerol and stored at −20° C. until use.
(§3) The binding potency of the inhibitors against DltA enzyme was assessed by IC50 determination in an in vitro DltA activity assay. The assay buffer “AB” contained 50 mM Hepes pH8.0, 10 mM MgCl2, 50 mM KCl, 0.012% Triton-X100, 10 mM DTT and 100 nM Myelin-basic protein. The following components were added in a white polystyrene Costar plate up to a final volume of 30 μL: 3 μL DMSO, or inhibitor dissolved in DMSO and 27 μL DltA enzyme in AB. After 30 min of pre-incubation at room temperature, 30 μL of Substrates mix in AB were added in each well to a final volume of 60 μL. This reaction mixture was then composed of DltA (produced in house from S. aureus, E. faecalis, E. faecium and S. agalactiae), 0.5 mM D-Alanine (Sigma), 0.5-5 μM ATP (Sigma) and 0.05 u/ml inorganic pyrophosphatase (Sigma) in assay buffer. After typically 1-2 hours of incubation at room temperature (conversion rate around 30%), 30 μL of the revelation mix were added to a final volume of 90 μL, including the following constituents at the respective final concentrations: 10000 u/ml luciferase (Sigma), 30 μM D-luciferin (Sigma), 100 μM N-acetylcysteamine (Aldrich). Luminescence intensity was immediately measured on a Fluostar Optima (BMG) (excitation 360 nm, emission 520 nm) and converted into inhibition percentages. For IC50 determinations (Inhibitory Concentration 50%) the inhibitor was added at 6 to 10 different concentrations and the related inhibitions were fitted to a classical Langmuir equilibrium model using XLFIT (IDBS).
(§4) For compounds interfering with the luminescent signal (quenching), the same experiment without DltA enzyme was performed to allow quenching determination and correction.

[2] = biological target: S. Agalactiae DltA (Streptococcus agalactiae serotype III (strain NEM316), UniProt Q8VM67); experiment: in vitro DltA activity assay (luminescence), S. agalactiae DltA
Description: as §1, §2, §3, §4

[3] = biological target: S. aureus DltA (Staphylococcus aureus (strain NCTC 8325 / PS 47), UniProt Q2FZW6); experiment: in vitro DltA activity assay (luminescence), S. aureus DltA
Description: as §1, §2, §3, §4

[4] = biological target: E. feacalis DltA (Enterococcus faecalis, UniProt Q830N0); experiment: in vitro DltA activity assay (luminescence), E. faecalis DltA
Description: as §1, §2, §3, §4

[5] = recombinant DltA, 30 min pre-incubation, 0.5 mM D-Alanine, 0.5-5 μM ATP, read-out: E. feacium DltA IC50
[6] = recombinant DltA, 30 min pre-incubation, 0.5 mM D-Alanine, 0.5-5 μM ATP, read-out: S. Agalactiae DltA IC50
[7] = recombinant DltA, 30 min pre-incubation, 0.5 mM D-Alanine, 0.5-5 μM ATP, read-out: S. aureus DltA IC50
[8] = recombinant DltA, 30 min pre-incubation, 0.5 mM D-Alanine, 0.5-5 μM ATP, read-out: E. feacalis DltA IC50

E. feacalis DltA, sequence (Q830N0 1-506): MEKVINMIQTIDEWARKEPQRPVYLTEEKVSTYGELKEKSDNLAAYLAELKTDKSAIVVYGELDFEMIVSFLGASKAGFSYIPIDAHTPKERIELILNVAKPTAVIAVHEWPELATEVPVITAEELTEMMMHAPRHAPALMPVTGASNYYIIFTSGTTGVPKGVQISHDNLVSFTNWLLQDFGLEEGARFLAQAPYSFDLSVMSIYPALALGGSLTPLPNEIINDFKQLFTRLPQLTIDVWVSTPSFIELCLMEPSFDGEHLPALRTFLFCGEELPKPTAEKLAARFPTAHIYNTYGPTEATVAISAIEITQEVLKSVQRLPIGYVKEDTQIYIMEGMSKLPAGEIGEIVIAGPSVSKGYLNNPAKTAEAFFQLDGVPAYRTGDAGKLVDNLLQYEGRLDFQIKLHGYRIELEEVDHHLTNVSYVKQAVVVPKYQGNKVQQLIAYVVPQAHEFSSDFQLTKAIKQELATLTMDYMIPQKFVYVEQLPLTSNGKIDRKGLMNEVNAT
E. feacium DltA, sequence (Q3XZT7 1-504): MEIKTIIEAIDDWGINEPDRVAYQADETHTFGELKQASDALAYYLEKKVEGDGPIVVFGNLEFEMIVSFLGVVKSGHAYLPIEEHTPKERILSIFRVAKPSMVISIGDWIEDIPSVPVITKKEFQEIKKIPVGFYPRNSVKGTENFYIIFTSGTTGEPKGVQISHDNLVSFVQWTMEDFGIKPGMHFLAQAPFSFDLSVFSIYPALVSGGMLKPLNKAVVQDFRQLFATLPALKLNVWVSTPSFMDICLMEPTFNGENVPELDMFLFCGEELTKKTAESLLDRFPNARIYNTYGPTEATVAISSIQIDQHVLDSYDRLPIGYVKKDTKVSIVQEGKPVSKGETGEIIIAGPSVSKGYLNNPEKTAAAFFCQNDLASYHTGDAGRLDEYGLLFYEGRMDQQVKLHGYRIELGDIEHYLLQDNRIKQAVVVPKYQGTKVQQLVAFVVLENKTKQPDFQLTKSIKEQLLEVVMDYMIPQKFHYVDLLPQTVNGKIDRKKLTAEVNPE

SMILES	IC50 [1, 5]	IC50 [2, 6]	IC50 [3, 7]	IC50 [4, 8]	IC50 [1]	IC50 [2]	IC50 [3]	IC50 [4]
CN(C)CCN(C)c1cc(-c2ccc3scnc3c2)c2nc[nH]c2c1C(N)=O [Example 134, 7-Benzothiazol-5-yl-5-[(2-dimethylamino-ethyl)-methyl-amino]-3H-benzimidazole-4-carboxamide]	120 nM	1100 nM	250 nM	24 nM				
COCCn1cnc2cc(-c3cc(N(C)CCN(C)C)c(C(N)=O)c4[nH]cnc34)ccc21 [Example 135]	45 nM	840 nM	17 nM	69 nM				
CN(C)CCN(C)c1cc(-c2cnc3c(c2)CCCO3)c2nc[nH]c2c1C(N)=O [Example 144, 7-(3,4-Dihydro-2H-pyrano[2,3-b]pyridin-6-yl)-5-[(2-dimethylamino-ethyl)-methyl-amino]-3H-benzimidazole-4-carboxamide]	120 nM	630 nM	39 nM	17 nM				
CCn1cnc2cc(-c3cc(N(C)CCN(C)C)c(C(N)=O)c4[nH]cnc34)cc(OC)c21 [Example 152]	58 nM	2200 nM	13 nM	16 nM				
CN(C)CCN(C)c1cc(-c2ccc3c(c2)ncn3C2CCC(F)(F)CC2)c2nc[nH]c2c1C(N)=O [Example 161, 1′-(4,4-Difluoro-cyclohexyl)-6-[(2-dimethylamino-ethyl)-methyl-amino]-1H,1′H-[4,5′]bibenzimidazolyl-7-carboxamide]	69 nM	1200 nM	13 nM	8.1 nM				
CN(C)CCN(C)c1cc(-c2ccc3c(c2)ncn3CC(F)F)c2nc[nH]c2c1C(N)=O [Example 163, 1′-(2,2-Difluoro-ethyl)-6-[(2-dimethylamino-ethyl)-methyl-amino]-1H,1′H-[4,5′]bibenzimidazolyl-7-carboxamide]	34 nM	780 nM	14 nM	5.4 nM				
CN(C)CCN(C)c1cc(-c2cc3c4c(c2)ncn4CCO3)c2nc[nH]c2c1C(N)=O [Example 165, 7-(3,4-Dihydro-5-oxa-1.2a-diaza-acenaphthylen-7-yl)-5-[(2-dimethylamino-ethyl)-methyl-amino]-3H-benzimidazole-4-carboxamide]	90 nM	2200 nM	29 nM	26 nM				
CN(CCO)c1cc(-c2ccc3c(c2)ncn3[C@@H]2CCCC[C@H]2F)c2nc[nH]c2c1C(N)=O [Example 171]	40 nM	350 nM	15 nM	6.7 nM				
COCCN(C)c1cc(-c2ccc3c(c2)ncn3C2CCCCC2)c2nc[nH]c2c1C(N)=O [Example 176, 1′-Cyclohexyl-6-[(2-methoxy-ethyl)-methyl-amino]-1H,1′H-[4,5′]bibenzimidazolyl-7-carboxamide]	190 nM	2300 nM	940 nM	35 nM				
CN(CCO)c1cc(-c2cnc3c(c2)CCCO3)c2nc[nH]c2c1C(N)=O [Example 177, 7-(3,4-Dihydro-2H-pyrano[2,3-b]pyridin-6-yl)-5-[(2-hydroxy-ethyl)-methyl-amino]-3H-benzimidazole-4-carboxamide]	320 nM	1100 nM	170 nM	45 nM				
CN(CCN1CCCC1)c1cc(-c2cnc3c(c2)CCCO3)c2nc[nH]c2c1C(N)=O [Example 181, 7-(3,4-Dihydro-2H-pyrano[2,3-b]pyridin-6-yl)-5-[methyl-(2-pyrrolidin-1-yl-ethyl)-amino]-3H-benzimidazole-4-carboxamide]	160 nM	180 nM	51 nM	9.2 nM				
CN(C)CCOc1cc(-c2cnc3c(c2)CCCO3)c2nc[nH]c2c1C(N)=O [Example 182, 7-(3,4-Dihydro-2H-pyrano[2,3-b]pyridin-6-yl)-5-(2-dimethylamino-ethoxy)-3H-benzimidazole-4-carboxamide methanesulfonic acid salt]	59 nM	480 nM	4.8 nM	4.5 nM				
CCn1cnc2cc(-c3nc(N(C)CCN(C)C)c(C(N)=O)c4[nH]cnc34)ccc21 [Example 200, 6-[2-(dimethylamino)ethyl-methyl-amino]-4-(1-ethylbenzimidazol-5-yl)-1H-imidazo[4,5-c]pyridine-7-carboxamide]	800 nM	5400 nM	22 nM	71 nM				
CN(C)CCN(C)c1cc(-c2cncc(C3CC3)c2)c2nc[nH]c2c1C(N)=O [Example 202, 4-(5-cyclopropylpyridin-3-yl)-6-((2-(dimethylamino)ethyl)-(methyl)amino)-1H-benzo[d]imidazole-7-carboxamide]	190 nM	2000 nM	110 nM	95 nM				
CCCCn1cnc2cc(-c3cc(N(C)CCN(C)C)c(C(N)=O)c4[nH]cnc34)ccc21 [Example 203, 7-(1-butylbenzimidazol-5-yl)-5-[2-(dimethylamino)ethyl-methyl-amino]-3H-benzimidazole-4-carboxamide]	110 nM	350 nM	28 nM	7.3 nM				
CN(C)CCN(C)c1cc(-c2ccc3c(c2)ncn3-c2ccccc2)c2nc[nH]c2c1C(N)=O [Example 204, 5-[2-(dimethylamino)ethyl-methyl-amino]-7-(1-phenylbenzimidazol-5-yl)-3H-benzimidazole-4-carboxamide]	58 nM	1400 nM	17 nM	12 nM				
CN(C)CCN(C)c1cc(-c2ccc(N(C)C)nc2)c2nc[nH]c2c1C(N)=O [Example 205, 5-[2-(dimethylamino)ethyl-methyl-amino]-7-[6-(dimethylamino)-3-pyridyl]-3H-benzimidazole-4-carboxamide]	30 nM	4300 nM	140 nM	9.2 nM				
CN1CCCC(Oc2cc(-c3cnc4c(c3)CCCO4)c3nc[nH]c3c2C(N)=O)C1 (stereo not drawn) [Example 208, 7-(3,4-dihydro-2H-pyrano[2,3-b]pyridin-6-yl)-5-[(1-methyl-3-piperidyl)oxy]-3H-benzimidazole-4-carboxamide methanesulfonic acid salt]	280 nM	1900 nM	230 nM	61 nM				
CN1CCC[C@@H]1COc1cc(-c2cnc3c(c2)CCCO3)c2nc[nH]c2c1C(N)=O [Example 210, 7-(3,4-dihydro-2H-pyrano[2,3-b]pyridin-6-yl)-5-[[(2R)-1-methylpyrrolidin-2-yl]methoxy]-3H-benzimidazole-4-carboxamide methanesulfonic acid salt]	36 nM	150 nM	6.2 nM	5.1 nM				
NC(=O)c1c(N2CCC(CO)(CO)CC2)cc(-c2ccc3c(c2)ncn3C2CCCCC2)c2nc[nH]c12 [Example 211, 5-[4,4-bis(hydroxymethyl)-1-piperidyl]-7-(1-cyclohexylbenzimidazol-5-yl)-3H-benzimidazole-4-carboxamide]	2 nM	470 nM	24 nM	6.8 nM				
NC(=O)c1c(OC[C@H]2CCCN2)cc(-c2ccc3c(c2)ncn3[C@@H]2CCCC[C@H]2F)c2nc[nH]c12 [Example 214, 7-[1-[(1R,2R)-2-fluorocyclohexyl]benzimidazol-5-yl]-5-[[(2R)-pyrrolidin-2-yl]methoxy]-3H-benzimidazole-4-carboxamide methanesulfonic acid salt]					32 nM	390 nM	4 nM	4 nM
